Experimental data from publication PMC7932537, “Quantitative profiling of protease specificity” (PLoS Computational Biology, 2021).

What was measured:
MMP-2 [1] = target: T1, MMP-2 (Homo sapiens, UniProt P08253); experiment: K(obs) of individual phage substrates (set of 1369); type: biochemical; details: MMP2
T1 sequence (P08253 110-660): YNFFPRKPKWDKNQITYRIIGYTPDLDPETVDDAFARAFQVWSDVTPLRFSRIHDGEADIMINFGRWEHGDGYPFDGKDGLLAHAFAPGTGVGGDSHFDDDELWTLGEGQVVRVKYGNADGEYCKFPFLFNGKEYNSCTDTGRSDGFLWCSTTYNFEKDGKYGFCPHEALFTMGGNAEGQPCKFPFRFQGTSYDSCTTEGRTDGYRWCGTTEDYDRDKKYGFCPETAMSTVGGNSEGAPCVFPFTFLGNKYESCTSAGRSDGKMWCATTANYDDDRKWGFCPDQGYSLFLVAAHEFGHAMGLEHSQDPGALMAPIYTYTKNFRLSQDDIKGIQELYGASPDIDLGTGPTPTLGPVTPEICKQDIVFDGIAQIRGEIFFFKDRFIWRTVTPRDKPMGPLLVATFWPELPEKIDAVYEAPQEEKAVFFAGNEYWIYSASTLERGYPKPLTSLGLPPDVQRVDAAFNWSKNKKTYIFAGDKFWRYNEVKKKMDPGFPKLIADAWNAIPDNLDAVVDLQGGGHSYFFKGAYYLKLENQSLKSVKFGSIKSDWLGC

MMP-9 = MMP-9 (Homo sapiens, UniProt P14780); experiment: as above; type: biochemical; details: MMP9
Sequence of MMP-9 (P14780 94-707): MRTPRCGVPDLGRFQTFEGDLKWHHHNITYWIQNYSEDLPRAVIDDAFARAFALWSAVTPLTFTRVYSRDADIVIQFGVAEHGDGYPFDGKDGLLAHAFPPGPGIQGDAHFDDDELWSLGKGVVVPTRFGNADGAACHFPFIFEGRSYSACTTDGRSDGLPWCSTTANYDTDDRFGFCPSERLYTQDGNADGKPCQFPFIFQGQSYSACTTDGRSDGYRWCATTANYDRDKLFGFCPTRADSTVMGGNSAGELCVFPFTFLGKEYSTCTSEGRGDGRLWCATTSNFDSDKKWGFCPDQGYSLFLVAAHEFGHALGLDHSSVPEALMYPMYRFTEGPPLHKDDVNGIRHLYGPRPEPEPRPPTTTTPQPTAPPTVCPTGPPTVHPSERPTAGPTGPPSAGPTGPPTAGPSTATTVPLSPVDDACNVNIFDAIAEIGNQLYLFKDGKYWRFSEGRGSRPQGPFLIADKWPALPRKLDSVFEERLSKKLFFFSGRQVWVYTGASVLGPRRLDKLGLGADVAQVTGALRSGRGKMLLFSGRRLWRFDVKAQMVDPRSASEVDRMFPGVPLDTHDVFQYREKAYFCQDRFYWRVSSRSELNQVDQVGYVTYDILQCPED

MMP-2 [2] = experiment: Substrate phage display with NGS: relative probability (RP) of P3-P1' tetramer clusters; type: biochemical, human; details: MMP2;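 note: ratio of tetramer probability after protease selection to that in naive phage library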
[3] = individual phage substrate of the set of 1369 peptides, cleavage position marked by '-'
[4] = individual phage substrate of the set of 1369 peptides, dash in the sequence marks the cleavage position
[5] = RP of the P3-P1' tetramer contained in the substrate
[6] = individual phage substrates, set of 1369 peptides, cleavage position marked by hyphen in sequence
[7] = individual phage substrates, set of 1369 peptides, hyphen in sequence marks cleavage position
[8] = RP of the P3-P1' tetramer contained in the substrate (substrate phage display with NGS)

Row | Substance | Kobs (MMP-2 [1]; [3]) [M⁻¹ s⁻¹] | Kobs (MMP-9; [4]) [M⁻¹ s⁻¹] | Kobs (MMP-2 [1]; [6]) [M⁻¹ s⁻¹] | Kobs (MMP-9; [7]) [M⁻¹ s⁻¹] | relative probability (RP) (MMP-2 [2]; [5]) | relative probability (RP) (MMP-2 [2]; [8])
1 | DKLAS-LTASG | 12792.1 | 0 | – | – | 31.1996 | –
2 | DNTFH-LTASG | 142.481 | 0 | – | – | 0.1298 | –
3 | DRPNY-LTASG | 4082.43 | 1196.62 | – | – | 17.2533 | –
4 | DSLAW-LTASG | – | – | 10866.7 | 1561.44 | – | 22.0358
5 | ELSLA-LTASG | 1925.41 | 1112.44 | – | – | 6.019 | –
6 | ELVRS-LTASG | 12792.1 | 12792.1 | – | – | 12.3051 | –
7 | EMSWG-LTASG | – | – | 0 | 231.616 | – | 0.1389
8 | EQLSF-LTASG | – | – | 12792.1 | 0 | – | 14.5333
9 | ERFSH-LTASG | 2344.36 | 231.616 | – | – | 16.5216 | –
10 | ERIYA-LTASG | – | – | 2687.73 | 7386.83 | – | 6.967
11 | ERSLA-WTASG | 2157.02 | 113.394 | – | – | 18.2943 | –
12 | ERSLN-LTASG | 726.013 | 1239.69 | – | – | 3.302 | –
13 | ESFAA-LTASG | 12792.1 | 56.119 | – | – | 18.8584 | –
14 | EVARA-MTASG | 7015.91 | 5090.5 | – | – | 25.2992 | –
15 | FDISH-LTASG | – | – | 10866.7 | 171.876 | – | 30.7015
16 | FMPRN-TASGA | 2837.92 | 12792.1 | – | – | 2.5391 | –

Row | Substance | Kobs (MMP-2 [1]; [3]) [M⁻¹ s⁻¹] | Kobs (MMP-9; [4]) [M⁻¹ s⁻¹] | Kobs (MMP-2 [1]; [6]) [M⁻¹ s⁻¹] | Kobs (MMP-9; [7]) [M⁻¹ s⁻¹] | relative probability (RP) (MMP-2 [2]; [5]) | relative probability (RP) (MMP-2 [2]; [8])
17 | FPVLS-LTASG | – | – | 10866.7 | 6396.07 | – | 10.8506
18 | FSARS-LTASG | – | – | 8941.32 | 4613.14 | – | 17.186
19 | GAFRH-LRTAS | 201.585 | 0 | – | – | 3.942 | –
20 | GAPRS-LQTAS | 12792.1 | 12792.1 | – | – | 33.3704 | –
21 | GCPLS-LYTAS | – | – | 4335.13 | 6688.74 | – | 33.5282
22 | GCVRF-LQTAS | 1239.69 | 1071.29 | – | – | 15.0438 | –
23 | GDMRH-LSTAS | – | – | 1561.44 | 799.117 | – | 14.413
24 | GDPYS-LRTAS | 4922.1 | 12792.1 | – | – | 30.7259 | –
25 | GEFAA-LQTAS | – | – | 2615.58 | 323.705 | – | 18.8584
26 | GEVRF-LRTAS | 9740.44 | 2837.92 | – | – | 15.0438 | –
27 | GEVRG-LRTAS | – | – | 12792.1 | 7386.83 | – | 29.092
28 | GFFLH-LTTAS | – | – | 0 | 0 | – | 0.8093
29 | GFPLM-LTASG | 9740.44 | 12792.1 | – | – | 25.0435 | –
30 | GFWSS-LRTAS | 5461.43 | 0 | – | – | 16.6561 | –
31 | GGPRS-LFTAS | 12792.1 | 12792.1 | – | – | 33.3704 | –

Further lines, with some results ahead:

Row | Kobs (MMP-2 [1]; [3]) [M⁻¹ s⁻¹] | Kobs (MMP-9; [4]) [M⁻¹ s⁻¹] | Kobs (MMP-2 [1]; [6]) [M⁻¹ s⁻¹] | Kobs (MMP-9; [7]) [M⁻¹ s⁻¹] | Substance | relative probability (RP) (MMP-2 [2]; [5]) | relative probability (RP) (MMP-2 [2]; [8])
32 | 1925.41 | 2615.58 | – | – | DAVYG-LTASG | 17.3788 | –
33 | 12792.1 | 8321.48 | – | – | DLPAG-LTASG | 36.0156 | –
34 | 6396.07 | 6396.07 | – | – | DPWRA-LTASG | 22.4074 | –
35 | 84.609 | 0 | – | – | DRQLS-LTASG | 0.4979 | –
36 | 2218.08 | 2280.5 | – | – | EHAWN-LTASG | 14.0049 | –
37 | – | – | 951.362 | 142.481 | EIWLP-ITASG | – | 0.6666
38 | – | – | 2157.02 | 142.481 | ELMLS-MTASG | – | 5.234
39 | – | – | 5667.28 | 451.441 | EMYGN-MTASG | – | 13.8836
40 | – | – | 142.481 | 27.918 | ENFLH-LTASG | – | 0.8093
41 | – | – | 1154.21 | 726.013 | EQAWY-LTASG | – | 0.09636
42 | 1239.69 | 3438.54 | – | – | ERVWA-ITASG | 3.219 | –
43 | – | – | 484.315 | 0 | ETMLA-LTASG | – | 5.6722
44 | – | – | 7386.83 | 1513.13 | EVARA-WTASG | – | 17.4628
45 | 1711.63 | 874.197 | – | – | FDAQS-LTASG | 18.365 | –
46 | 1870.4 | 12792.1 | – | – | FGPYA-MTASG | 28.0901 | –
47 | 10866.7 | 9740.44 | – | – | FMPSA-QTASG | 28.0379 | –
48 | 12792.1 | 10866.7 | – | – | FNPIH-LTASG | 26.4106 | –
49 | 1239.69 | 484.315 | – | – | FPGRH-LTASG | 3.598 | –
50 | – | – | 874.197 | 113.394 | FQFEH-LTASG | – | 1.21
51 | – | – | 990.764 | 690.17 | FSLRQ-MTASG | – | 8.677

Row | Kobs (MMP-2 [1]; [3]) [M⁻¹ s⁻¹] | Kobs (MMP-9; [4]) [M⁻¹ s⁻¹] | Kobs (MMP-2 [1]; [6]) [M⁻¹ s⁻¹] | Kobs (MMP-9; [7]) [M⁻¹ s⁻¹] | Substance | relative probability (RP) (MMP-2 [2]; [5]) | relative probability (RP) (MMP-2 [2]; [8])
52 | – | – | 0 | 0 | FSQLA-MTASG | – | 5.241
53 | 9740.44 | 12792.1 | – | – | FVVRA-LTASG | 30.4312 | –
54 | 690.17 | 261.974 | – | – | GAAHG-IFTAS | 8.881 | –
55 | 5889.62 | 12792.1 | – | – | GAPMN-VVTAS | 12.9651 | –
56 | 12792.1 | 12792.1 | – | – | GAPRF-LSTAS | 28.4443 | –
57 | 12792.1 | 12792.1 | – | – | GAPRS-LVTAS | 33.3704 | –
58 | 12792.1 | 12792.1 | – | – | GAPWG-IHTAS | 25.1508 | –
59 | – | – | 0 | 0 | GAWHN-MRTAS | – | 0
60 | – | – | 654.784 | 1327.88 | GCPHM-MTASG | – | 14.968
61 | 3850.82 | 4922.1 | – | – | GDPYG-MRTAS | 27.2726 | –
62 | – | – | 1763.55 | 0 | GEFRS-MRTAS | – | 5.389
63 | – | – | 2687.73 | 1239.69 | GEPNY-LKTAS | – | 17.2533
64 | 585.336 | 951.362 | – | – | GEVFS-LTASG | 9.631 | –
65 | 654.784 | 2916.17 | – | – | GFAWS-LHTAS | 7.006 | –
66 | 142.481 | 1763.55 | – | – | GFPLM-YATAS | 17.2027 | –
67 | – | – | 10866.7 | 12792.1 | GFPQS-LMTAS | – | 33.5105
68 | 5667.28 | 484.315 | – | – | GFSAN-LKTAS | 23.7816 | –
69 | – | – | 1513.13 | 8321.48 | GGPFL-LKTAS | – | 9.085
70 | – | – | 4763.33 | 12792.1 | GGPIP-LWTAS | – | 33.1236
